Results on 3 compounds are retold here after patent US6947847B2, “Method to design therapeutically important compounds” (Wisconsin Alumni Research Foundation, priority 2002, dated 2005).

Assay [1] addresses human renin (Homo sapiens, UniProt P00797). Particulars: cited from earlier work.
Assay [2] has as its target T1, R. chinensis pepsin (Rhizopus chinensis, UniProt P06026).
T1 sequence (P06026 69-393): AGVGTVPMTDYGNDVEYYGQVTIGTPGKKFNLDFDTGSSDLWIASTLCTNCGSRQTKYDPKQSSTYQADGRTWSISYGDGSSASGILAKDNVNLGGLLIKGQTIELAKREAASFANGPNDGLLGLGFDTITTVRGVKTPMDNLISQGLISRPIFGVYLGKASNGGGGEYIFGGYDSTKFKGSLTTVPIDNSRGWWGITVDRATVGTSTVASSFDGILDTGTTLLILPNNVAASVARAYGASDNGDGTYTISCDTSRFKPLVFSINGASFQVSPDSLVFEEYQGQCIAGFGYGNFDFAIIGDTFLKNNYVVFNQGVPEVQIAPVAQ
Briefly: biochemical. As for the experimental part: Inhibition of substrate hydrolysis by porcine pepsin and R. chinensis pepsin was determined using prior art assay conditions. See Flentke et al. (1999) Protein Expression Purif. 16:213 and Peranteau et al. (1995) Anal. Biochem. 227:242.

Assay [3] addresses porcine pepsin (Sus scrofa, UniProt P00791). Briefly: Inhibition of substrate hydrolysis by porcine pepsin. In kind it is biochemical.

The structures appear in SMILES notation. Where two headings read alike, the source gives them in different places.

human renin, sequence (P00797 67-406): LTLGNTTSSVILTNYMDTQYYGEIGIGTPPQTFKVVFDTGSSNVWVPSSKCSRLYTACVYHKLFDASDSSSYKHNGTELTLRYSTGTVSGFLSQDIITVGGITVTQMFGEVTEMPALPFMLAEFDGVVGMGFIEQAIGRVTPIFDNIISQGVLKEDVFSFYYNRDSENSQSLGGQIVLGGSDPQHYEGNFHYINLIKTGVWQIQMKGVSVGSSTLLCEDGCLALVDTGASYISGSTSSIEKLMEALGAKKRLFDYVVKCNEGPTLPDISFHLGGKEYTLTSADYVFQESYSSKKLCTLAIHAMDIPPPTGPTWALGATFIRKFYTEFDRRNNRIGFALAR
porcine pepsin, sequence (P00791 60-385): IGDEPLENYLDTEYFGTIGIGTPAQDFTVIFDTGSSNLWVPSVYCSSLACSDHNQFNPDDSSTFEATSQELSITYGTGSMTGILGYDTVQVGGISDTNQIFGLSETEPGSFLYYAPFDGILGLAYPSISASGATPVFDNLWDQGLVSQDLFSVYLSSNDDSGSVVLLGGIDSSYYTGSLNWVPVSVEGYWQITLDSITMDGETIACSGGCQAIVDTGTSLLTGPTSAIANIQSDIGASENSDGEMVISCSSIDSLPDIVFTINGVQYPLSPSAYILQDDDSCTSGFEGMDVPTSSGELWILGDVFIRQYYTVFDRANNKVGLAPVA

As for `COc1ccc(CO[C@H]2CNCCC2c2ccc(Cl)cc2)cc1` (stereo partly drawn) [Compound 4], the “concentrations at which renin is inhibited (in words)” value in assay [1] (human renin, literature) was “low micromolar”. Moreover, in assay [1] (read-out: inhibits renin at, renin, literature value), the IC50 is around 26 µM.

`O=C(COc1ccc([C@H]2CCNC[C@@H]2OCc2ccc(Br)cc2)cc1)c1ccc2ccccc2c1` [Compound 11]: the IC50 was determined as 0.2 µM in assay [2] and 0.2 µM in assay [3] (porcine pepsin, read-out: IC50).

Take `Brc1ccc(CO[C@H]2CNCC[C@@H]2c2ccccc2)cc1` [Compound 12]: the IC50 in assay [2] (R. chinensis pepsin, read-out: IC50) was 2 µM; in assay [3] it was 2 µM.
